The experiment concerns the target T1, GIRK heteromers (UniProt P48542+P48549).
T1 construct: expressed in transfected cells; HEK293-T in the methods
T1 sequence (P48549 1-501): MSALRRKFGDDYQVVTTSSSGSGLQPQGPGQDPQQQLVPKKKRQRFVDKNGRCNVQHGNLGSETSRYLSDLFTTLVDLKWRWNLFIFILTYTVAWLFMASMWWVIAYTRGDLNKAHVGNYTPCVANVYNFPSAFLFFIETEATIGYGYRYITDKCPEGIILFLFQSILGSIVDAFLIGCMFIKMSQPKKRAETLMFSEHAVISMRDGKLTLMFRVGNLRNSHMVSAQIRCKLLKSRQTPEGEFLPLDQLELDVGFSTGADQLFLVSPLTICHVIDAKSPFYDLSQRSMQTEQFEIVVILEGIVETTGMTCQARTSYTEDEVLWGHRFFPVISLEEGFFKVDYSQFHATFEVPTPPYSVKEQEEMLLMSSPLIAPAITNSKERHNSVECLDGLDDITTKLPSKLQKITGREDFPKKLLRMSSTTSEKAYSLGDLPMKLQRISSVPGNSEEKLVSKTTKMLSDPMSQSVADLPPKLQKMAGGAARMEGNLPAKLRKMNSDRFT
T1 sequence (P48542 1-425): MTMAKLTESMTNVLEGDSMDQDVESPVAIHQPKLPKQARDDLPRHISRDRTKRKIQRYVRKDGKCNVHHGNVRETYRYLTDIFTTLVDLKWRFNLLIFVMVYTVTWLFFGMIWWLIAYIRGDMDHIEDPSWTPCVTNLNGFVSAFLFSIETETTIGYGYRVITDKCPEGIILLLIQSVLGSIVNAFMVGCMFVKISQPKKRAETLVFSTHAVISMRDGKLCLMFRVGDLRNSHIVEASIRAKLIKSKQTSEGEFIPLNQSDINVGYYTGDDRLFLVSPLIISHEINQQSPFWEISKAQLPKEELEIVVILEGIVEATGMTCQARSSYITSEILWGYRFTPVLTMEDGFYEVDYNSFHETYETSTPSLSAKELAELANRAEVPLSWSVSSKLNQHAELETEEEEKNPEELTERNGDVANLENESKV
The experiment in a line: concentration-response after PIP2 hydrolysis by light-sensitive phosphatase, whole-cell patch-clamp in mammalian cells. The format is cell-based. To be noted: stimulation of light-sensitive phosphatase, FIGS. 20A-20C. An excerpt:
The MD simulations indicated a PIP2-dependent activation effect by ML297 and the GAT compounds in GIRK heteromers leading to channel gating. To experimentally test the role of PIP2 in channel activation by ML297 and the GAT compounds, the inventors proceeded to first manipulate PIP2 levels by inducing a light-sensitive phosphatase in whole-cell patch-clamp experiments in mammalian cells and to examine the effects of the activating compounds (FIGS. 20A-20C).
Light-activated phosphatase system: The inventors used a light-activated phosphatase system to dephosphorylate PIP2 that is comprised of two fusion proteins: CRY2-5-ptaseOCRL contains the photolyase domain of cryptochrome 2 (CRY2) and the inositol 5-phosphatase domain of the […] oculocerebrorenal syndrome protein (OCRL), while CIBN-CAAX contains the CRY2 binding domain (CIBN) and a C-terminal CAAX box for plasma membrane targeting. When CRY2-5-ptaseOCRL and CIBN-CAAX fusion proteins are co-expressed and exposed to blue light between 458-488 nm, the 5-ptase is localized to the plasma membrane, where it dephosphorylates PIP2. […] The 5-ptaseOCRL system was activated using a 460 nm LED (Luminus) that was focused on the cells through the objective lens of an inverted microscope (Nikon).
Patch-clamp recording: Whole-cell currents were recorded with an Axopatch 200B amplifier (Molecular Devices) controlled via a USB-interface (National Instruments) using WinWCP software (University of Strathclyde). Currents were acquired through a lowpass Bessel filter at 2 kHz and were digitized at 10 kHz. […] Cells for study were selected based on GFP expression using an epifluorescence microscope (Nikon). […] The barium-sensitive component of the current, observed when cells were perfused with the high-K^+ buffer, was analyzed and was determined by perfusing 5 mM BaCl2 in the high-K^+ buffer at the end of each experiment. […]
Turning to `Cc1cc(NC(=O)Nc2ccc(Br)s2)n(-c2ccccc2)n1` [GAT1508, 1-(5-bromothiophen-2-yl)-3-(3-methyl-1-phenyl-1H-pyrazol-5-yl)urea], the “decrease in potency following hydrolysis of PIP2” value is around 2 fold. As for `Cc1cc(NC(=O)Nc2ccc(C)s2)n(-c2ccccc2)n1` [GAT1521, 1-(3-methyl-1-phenyl-1H-pyrazol-5-yl)-3-(5-methylthiophen-2-yl)urea], the figure is around 3.7 fold; as for `Cc1cc(NC(=O)Nc2ccc(F)c(F)c2)n(-c2ccccc2)n1` [ML297, reference compound], around 3 fold.
